# Experimental data as given in US9586914B2, “Modulators of C3a receptors” (THE UNIVERSITY OF QUEENSLAND, priority 2011, dated 2017).
# Key:
# C3aR [1] = biological target: T1, C3aR (Homo sapiens, UniProt Q16581); assay: Desensitization experiments (Ca^2+ efflux after hC3a desensitization); format: cell-based; settings: hC3a 3 μM first; second addition of 1 μM compound; HMDM
# T1 construct: peripheral blood mononuclear cells were isolated from buffy coat (obtained from Australian Red Cross Blood Service, Kelvin Grove); endogenous in cells; host or cells: primary human monocyte-derived macrophages (HMDM) differentiated from CD14+ monocytes of donor buffy coat
# T1 sequence (Q16581 1-482): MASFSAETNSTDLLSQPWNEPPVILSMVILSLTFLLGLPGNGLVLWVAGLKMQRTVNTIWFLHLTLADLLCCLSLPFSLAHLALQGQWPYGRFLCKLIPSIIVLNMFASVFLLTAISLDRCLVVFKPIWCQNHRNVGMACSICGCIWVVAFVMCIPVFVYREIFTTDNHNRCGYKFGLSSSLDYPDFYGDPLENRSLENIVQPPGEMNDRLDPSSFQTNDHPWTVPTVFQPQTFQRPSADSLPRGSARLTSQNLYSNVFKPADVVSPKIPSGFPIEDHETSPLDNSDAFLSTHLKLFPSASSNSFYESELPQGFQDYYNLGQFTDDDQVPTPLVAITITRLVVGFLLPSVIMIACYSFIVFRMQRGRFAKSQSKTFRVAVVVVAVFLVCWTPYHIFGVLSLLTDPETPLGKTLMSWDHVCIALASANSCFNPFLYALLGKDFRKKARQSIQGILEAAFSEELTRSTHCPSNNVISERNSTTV
# Method: Desensitization experiments were used to measure the selectivity of various ligands for C3aR, since this can help to clarify whether the non-peptidic ligands bind selectively to C3aR over other GPCRs that signal through intracellular calcium release.
# The hC3a (3 μM) was administered to human monocyte derived macrophage cells, which produces an efflux of intracellular Ca^2+ that dissipates after 4-5 mins (FIGS. 4A and 4B). A second addition of 3 μM hC3a after 5 mins has no effect, due to desensitization of the receptor through either receptor (C3a receptor) phosphorylation or receptor internalization from the cell surface.
# C3aR [2] = biological target: T1, C3aR; assay: Calcium mobilization assay in HMDM (agonist/antagonist activity); format: cell-based; settings: Table 9, Ca^2+ mobilization, HMDM
# How it was run: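 Human monocyte-derived macrophages, 5×10^4 cells/well, loaded 1 h at 37 °C with 4 μM Fluo-3 in HBSS/HEPES/probenecid buffer, pH 7.4. Agonist mode: calcium release read 300 s; antagonist mode: 900 s compound preincubation then agonist, read 300 s (ex 485/em 520 nm); compared with hC3a.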
# C3a receptor (C3aR) = biological target: T2, C3a receptor (C3aR) (Homo sapiens, UniProt Q16581); assay: Competitive binding with [^125I]-C3a in HMDM; settings: Table 6, competitive binding with [^125I]-C3a, HMDM
# T2 construct: peripheral blood mononuclear cells were isolated from buffy coat (obtained from Australian Red Cross Blood Service, Kelvin Grove); endogenous in cells; host or cells: primary human monocyte-derived macrophages (HMDM) differentiated from CD14+ monocytes of donor buffy coat
# T2 sequence (Q16581 1-482): T1 sequence (Q16581 1-482)
# How it was run: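 IC50 values are geometric means, with −log IC50 computed per experiment and given as arithmetic mean ± SE. Cells were CD14+ monocytes from buffy-coat PBMC, differentiated to macrophages and used on day 7. Unbound label was removed by GF/B filtration with 3 cold washes in 50 mM Tris-HCl pH 7.4.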
structure (smiles),measurement,setting,value
"CC(C)C[C@H](NC(=O)c1c[nH]c2ccccc12)c1nc(C(=O)N[C@@H](CCCNC(=N)N)C(=O)O)co1 [Compound 8, 3-Indole Carboxylic Acid-Leucine-Oxazole-Arginine-OH]",Ca^2+ efflux on addition after first desensitization with hC3a (selectivity for C3aR over other GPCRs),C3aR [1],caused a second efflux of intracellular Ca^2+
same,pEC50 ± SEM,C3aR [2],8.15 ± 0.10
same,EC50,C3aR [2]; read-out: EC50,7.2 nM
same,pIC50 ± SEM,C3a receptor (C3aR),8.03 ± 0.05
same,IC50,C3a receptor (C3aR); read-out: IC50 (converted),9 nM
